# Measurements as given in PubChem BioAssay (NCI).
#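 Values below derive from 48-hour exposures of cells grown in 96-well plates, with endpoints linearly interpolated between the two concentrations bracketing the appropriate inhibition level. TGI denotes the concentration required for complete inhibition of growth.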
# Tests used:
# Test in all cases: growth of human tumour cells (NCI), 48 h
# [1] = test system: SK-OV-3 ovarian
# [2] = test system: HL-60(TB) leukemia
# [3] = test system: NCI-H460 lung
# [4] = test system: NCI-H226 lung
# [5] = test system: UACC-257 melanoma
# [6] = test system: MOLT-4 leukemia
# [7] = test system: PC-3 prostate
# [8] = test system: SF-268 CNS
# [9] = test system: NCI/ADR-RES ovarian
# [10] = test system: 786-0 renal
# [11] = test system: KM12 colon
# [12] = test system: SF-295 CNS
# [13] = test system: HCT-116 colon
# [14] = test system: OVCAR-5 ovarian
# [15] = test system: MALME-3M melanoma
# [16] = test system: HCC-2998 colon
# [17] = test system: BT-549 breast
# [18] = test system: CAKI-1 renal
# [19] = test system: HOP-92 NSCLC
# [20] = test system: A498 renal
# [21] = test system: A549 NSCLC
# [22] = test system: NCI-H522 lung
# [23] = test system: LOX IMVI melanoma
# [24] = test system: T-47D breast
# [25] = test system: TK-10 renal
# [26] = test system: HS 578T breast
# [27] = test system: UO-31 renal
# [28] = test system: COLO 205 colon
# [29] = test system: MDA-MB-231 breast
# [30] = test system: SF-539 CNS
# [31] = test system: UACC-62 melanoma
# [32] = test system: MDA-N
# [33] = test system: U251 CNS
# [34] = test system: SK-MEL-2 melanoma
# [35] = test system: M14 melanoma
# [36] = test system: CCRF-CEM leukemia
# [37] = test system: DU-145 prostate
# [38] = test system: MDA-MB-435
# [39] = test system: SW-620 colon
# [40] = test system: OVCAR-8 ovarian
# [41] = test system: HOP-62 NSCLC
# [42] = test system: SR leukemia
# [43] = test system: OVCAR-3 ovarian
# [44] = test system: IGROV1 ovarian
# [45] = test system: SNB-19 CNS
# [46] = test system: SNB-75 CNS
# [47] = test system: SK-MEL-28 melanoma
# [48] = test system: MCF7 breast
# [49] = test system: SK-MEL-5 melanoma
# [50] = test system: RPMI-8226 leukemia
# [51] = test system: OVCAR-4 ovarian
# [52] = test system: K-562 leukemia
# [53] = test system: SN12C renal
# [54] = test system: EKVX NSCLC
# [55] = test system: NCI-H23 lung
# [56] = test system: ACHN renal
# [57] = test system: HT29 colon
# [58] = test system: RXF 393 renal
# [59] = test system: HCT-15 colon
compound,measurement,setting,value
NC(N)=NS(=O)(=O)c1ccc(NC(=O)c2cccc3c(NNc4ccc(C(=O)O)cc4)c4ccccc4nc23)cc1,TGI,[1],> 100 µM
same,TGI,[2],> 100 µM
same,TGI,[3],> 100 µM
same,TGI,[4],> 100 µM
same,TGI,[5],> 100 µM
same,TGI,[6],> 100 µM
same,TGI,[7],> 100 µM
same,TGI,[8],> 100 µM
same,TGI,[9],> 100 µM
same,TGI,[10],> 100 µM
same,TGI,[11],> 100 µM
same,TGI,[12],> 100 µM
same,TGI,[13],> 100 µM
same,TGI,[14],> 100 µM
same,TGI,[15],> 100 µM
same,TGI,[16],> 100 µM
same,TGI,[17],> 100 µM
same,TGI,[18],> 100 µM
same,TGI,[19],> 100 µM
same,TGI,[20],98.2 µM
same,TGI,[21],> 100 µM
same,TGI,[22],> 100 µM
same,TGI,[23],> 100 µM
same,TGI,[24],> 100 µM
same,TGI,[25],> 100 µM
same,TGI,[26],> 100 µM
same,TGI,[27],> 100 µM
same,TGI,[28],> 100 µM
same,TGI,[29],> 100 µM
same,TGI,[30],> 100 µM
same,TGI,[31],> 100 µM
same,TGI,[32],> 100 µM
same,TGI,[33],> 100 µM
same,TGI,[34],95.7 µM
same,TGI,[35],> 100 µM
same,TGI,[36],85.2 µM
same,TGI,[37],> 100 µM
same,TGI,[38],> 100 µM
same,TGI,[39],> 100 µM
same,TGI,[40],> 100 µM
same,TGI,[41],> 100 µM
same,TGI,[42],> 100 µM
same,TGI,[43],> 100 µM
same,TGI,[44],> 100 µM
same,TGI,[45],> 100 µM
same,TGI,[46],> 100 µM
same,TGI,[47],> 100 µM
same,TGI,[48],> 100 µM
same,TGI,[49],> 100 µM
same,TGI,[50],> 100 µM
same,TGI,[51],> 100 µM
same,TGI,[52],> 100 µM
same,TGI,[53],> 100 µM
same,TGI,[54],> 100 µM
same,TGI,[55],> 100 µM
same,TGI,[56],> 100 µM
same,TGI,[57],> 100 µM
same,TGI,[58],> 100 µM
same,TGI,[59],> 100 µM
CC(C)(Cl)C(Cl)CC/C(CBr)=C(\Cl)CCl (configuration not stated),TGI,[1],17.9 µM
same,TGI,[2],4.65 µM
same,TGI,[3],28 µM
same,TGI,[4],15.3 µM
same,TGI,[5],14 µM
same,TGI,[6],2.63 µM
same,TGI,[7],20 µM
same,TGI,[8],29.1 µM
same,TGI,[9],34 µM
same,TGI,[10],6.5 µM
same,TGI,[11],19.5 µM
same,TGI,[12],30.6 µM
same,TGI,[13],8.74 µM
same,TGI,[14],28.3 µM
same,TGI,[15],20.2 µM
same,TGI,[16],27.7 µM
same,TGI,[17],3.63 µM
same,TGI,[18],9.92 µM
same,TGI,[19],23.7 µM
same,TGI,[20],35.3 µM
same,TGI,[21],34.1 µM
same,TGI,[22],1.88 µM
same,TGI,[23],1.35 µM
same,TGI,[24],3.88 µM
same,TGI,[25],27.7 µM
same,TGI,[26],25.3 µM
same,TGI,[27],17 µM
same,TGI,[28],11.1 µM
same,TGI,[29],7.28 µM
same,TGI,[30],15.5 µM
same,TGI,[31],3.79 µM
same,TGI,[32],5.26 µM
same,TGI,[33],16.2 µM
same,TGI,[34],5.32 µM
same,TGI,[35],3.61 µM
same,TGI,[36],2.95 µM
same,TGI,[37],26.7 µM
same,TGI,[38],8.56 µM
same,TGI,[39],4.12 µM
same,TGI,[40],12.6 µM
same,TGI,[41],26 µM
same,TGI,[42],3.31 µM
same,TGI,[43],12.2 µM
same,TGI,[44],4.66 µM
same,TGI,[45],32.7 µM
same,TGI,[46],14.1 µM
same,TGI,[47],8.84 µM
same,TGI,[48],32.1 µM
same,TGI,[49],6.58 µM
same,TGI,[50],4.59 µM
same,TGI,[51],7.45 µM
same,TGI,[52],17.1 µM
same,TGI,[53],9.47 µM
same,TGI,[54],31.8 µM
same,TGI,[55],14.4 µM
same,TGI,[56],28.3 µM
same,TGI,[57],14.7 µM
same,TGI,[58],23 µM
same,TGI,[59],4.35 µM
COc1ccc(C(OCC2OC(n3cnc4c(=O)n(Cc5ccccc5[N+](=O)[O-])nnc43)C(O)C2O)(c2ccccc2)c2ccc(OC)cc2)cc1 (configuration not stated),TGI,[1],> 100 µM
same,TGI,[2],5.85 µM
same,TGI,[3],> 53.1 µM
same,TGI,[4],45.5 µM
same,TGI,[5],> 100 µM
same,TGI,[6],9.57 µM
same,TGI,[7],> 100 µM
same,TGI,[8],> 100 µM
same,TGI,[9],> 100 µM
same,TGI,[10],> 100 µM
same,TGI,[11],> 92.4 µM
same,TGI,[12],> 100 µM
same,TGI,[13],13.1 µM
same,TGI,[14],> 100 µM
same,TGI,[15],49.2 µM
same,TGI,[16],26.9 µM
same,TGI,[17],> 100 µM
same,TGI,[18],> 56.7 µM
same,TGI,[19],23.2 µM
same,TGI,[20],34.5 µM
same,TGI,[21],> 100 µM
same,TGI,[22],48.9 µM
same,TGI,[23],> 39.4 µM
same,TGI,[24],> 100 µM
same,TGI,[25],64.1 µM
same,TGI,[26],> 94 µM
same,TGI,[27],> 87.4 µM
same,TGI,[28],34.5 µM
same,TGI,[29],> 61.8 µM
same,TGI,[30],34.1 µM
same,TGI,[31],38.8 µM
same,TGI,[32],47.6 µM
same,TGI,[33],> 100 µM
same,TGI,[34],60.6 µM
same,TGI,[35],> 100 µM
same,TGI,[36],20.7 µM
same,TGI,[37],> 100 µM
same,TGI,[38],> 91.4 µM
same,TGI,[39],> 100 µM
same,TGI,[40],> 100 µM
same,TGI,[41],> 100 µM
same,TGI,[42],8.88 µM
same,TGI,[43],> 62.3 µM
same,TGI,[44],> 71.2 µM
same,TGI,[45],> 100 µM
same,TGI,[46],> 100 µM
same,TGI,[47],69.5 µM
same,TGI,[48],> 100 µM
same,TGI,[49],> 45.5 µM
same,TGI,[50],15.7 µM
same,TGI,[51],> 100 µM
same,TGI,[52],> 57.4 µM
same,TGI,[53],45.7 µM
same,TGI,[54],> 100 µM
same,TGI,[55],> 90.8 µM
same,TGI,[56],97.9 µM
same,TGI,[57],59.1 µM
same,TGI,[58],> 59.5 µM
same,TGI,[59],91.2 µM
